In US20230092359A1, “GEMFIBROZIL FORMULATION” (Polaryx Therapeutics, Inc., priority 2020, published 2023):
Values after ≈ are worked out from the molar mass of the structure shown. Read-outs that look alike come from different tables or passages of the source.

What was measured:
[1] = XRPD form check after humidity stress; format: physicochemical
Description: In an example, an L-arginine gemfibrozil salt was stressed for one day at 75% relative humidity.
The observed peaks of the post-DVS salt were consistent with the pattern of peaks observed for an L-lysine gemfibrozil salt Material A prepared prior to exposure to increased relative humidities (FIG. 15).
X-Ray Powder Diffraction (XRPD)—XRPD patterns were collected with a PANalytical X'Pert PRO MPD or PANalytical Empyrean diffractometers using an incident beam of Cu radiation produced using an Optix long, fine-focus source. An elliptically graded multilayer mirror was used to focus Cu Kα X-rays through the specimen and onto the detector. Prior to analysis, a silicon specimen (NIST SRM 640e) was analyzed to verify the observed position of the Si 111 peak is consistent with the NIST-certified position. A specimen of the sample was sandwiched between 3 μm thick films and analyzed in transmission geometry. A beam-stop, short antiscatter extension, and antiscatter knife edge were used to minimize the background generated by air. Soller slits for the incident and diffracted beams were used to minimize broadening from axial divergence. Diffraction patterns were collected using a scanning position-sensitive detector (X'Celerator) located […] from the specimen and Data Collector software v. 5.5.

[2] = Thermogravimetric analysis (TGA); format: physicochemical
Procedure: Thermogravimetric Analysis (TGA)—TG analysis was performed using a Mettler-Toledo TGA/DSC3+ analyzer. Temperature and enthalpy adjustments were performed using indium, tin, and zinc, and then verified with indium. The balance was verified with calcium oxalate. The sample was placed in an open aluminum pan. The pan was hermetically sealed, the lid pierced, then inserted into the TG furnace. A weighed aluminum pan configured as the sample pan was placed on the reference platform. The furnace was heated under nitrogen. The data acquisition parameters for the thermogram are determined.

[3] = equivalent to 100 mg free form in 250 ml pH 7.3 artificial saliva, 37° C., 50 RPM
Procedure: Dissolution experiments using the salt forms of gemfibrozil were performed using a VanKel VK7010 dissolution apparatus equipped with a VK750D heater/circulator. The 2 paddle method was used. Dissolution medium was 250 mL of artificial saliva, pH 7.30. The temperature was maintained at 37° C. The paddles were rotated at 50 RPM. […] Samples aliquots of 2 mL were taken at 5, 10, and 15 minutes and filtered immediately using a […] Nylon membrane syringe filter. Samples were analyzed by HPLC.

[4] = Dynamic vapor sorption (DVS); format: physicochemical; set-up: key to Hysteresis: % change in weight (DVS sorption/desorption); settings: for Hysteresis: in % (unit assumed); for state of post-DVS sample: after sorption/desorption cycle 5%-95%-5% relative humidity; for Desorp Mass Change: desorption; for gained moisture retained: following desorption from 95% to 5% relative humidity; for Sorp Mass Change: sorption
Description: In an embodiment, ethanolamine gemfibrozil salt Form A has a low hygroscopicity below approximately 55% relative humidity, meaning less than 0.5% increases in weight below approximately 55% relative humidity, which may be determined using dynamic vapor sorption (DVS) to detect changes in weight of the salt in response to changes in relative humidity. […] Table 6 lists the percent change in weight of ethanolamine gemfibrozil salt Form A (Sorp Mass Change (%)) in 10% relative humidity increments from its initial weight at 5% relative humidity to its weight at 95% relative humidity.
Dynamic Vapor Sorption (DVS)—Moisture sorption/desorption data were collected on a SMS Intrinsic Dynamic Vapor Sorption Analyzer. Sodium chloride and PVP were used as calibration standard. Samples were not dried prior to analysis. Sorption and desorption data were collected over a range from 5% to 95% relative humidity at 10% relative humidity increments under a nitrogen purge. The equilibrium criterion used for analysis was less than 0.0100% weight change in 5 minutes with a maximum equilibration time of 3 hours. Data were not corrected for the initial moisture content of the samples.

physchem = settings: pH 7.3, fassgf or other biorelevant, thermodynamic from solid
Procedure: The solution was then mixed by vortexing or sonicating, until complete dissolution was observed.
Kinetic Solubilities/Visual Solubility Assessment—Weighed samples were treated with aliquots of solvent at ambient temperature unless otherwise indicated. Samples were typically sonicated between additions to facilitate dissolution. Complete dissolution was observed through visual inspection. Solubilities were calculated based on the total amount of solvent added to achieve complete dissolution and may be greater than the value reported due to incremental solvent addition and the inherent kinetics of dissolution. […] These values are approximate. These values may also over-represent the amount of solvent required given that solvent was added incrementally. Approximately 10 mg of gemfibrozil salt was weighed into a vial. Artificial saliva was added to the vial until complete dissolution was observed. Each volume addition was followed by vortex mixing or sonication and observation on the presence of solids was noted.
Solubility descriptors were used as follows—Practically insoluble refers to a compound that is soluble at less than 0.1 mg/ml in solution. […] Slightly soluble, refers to a compound that is soluble in an aqueous solution from 1 mg/ml to 10 mg/ml. Sparingly soluble, refers to a compound that is soluble in an aqueous solution from 10 mg/ml to 30 mg/ml. […]

[5] = Dissolution of free-form gemfibrozil in artificial saliva (USP <711> apparatus 2, HPLC); format: physicochemical; settings: 4 hours; 600 mg in 900 mL pH 7.3 artificial saliva, 100 rpm, 37° C. (FIG. 1)
Procedure: USP <711> dissolution apparatus 2 (paddle method) was used. Dissolution medium was 900 mL of artificial saliva, pH 7.30. The temperature was maintained at 37° C. The paddles were rotated at 100 RPM. Six-hundred milligrams of gemfibrozil was added into each vessel at t=0. Samples aliquots of 2 mL were taken at 0.25, 0.5, 1, 2, 3, and 4 hours and filtered immediately using a 0.45 μm Nylon membrane syringe filter, whereby the filtrate was diluted at a 1:1 ratio with methanol and then vortexed. Samples were analyzed by HPLC.

[6] = cited from earlier work
[7] = equilibrium, 1.5 ml pH 7.3 artificial saliva, 16 hours
[8] = sorption from 5% to 85% relative humidity
[9] = sorption from 85% to 95% relative humidity

## Cc1ccc(C)c(OCCCC(C)(C)C(=O)O)c1.N=C(N)NCCCC(N)C(=O)O [Arginine Material A]
[1]; stressed for one day at 75% relative humidity
  form change by XRPD: did not undergo a form change
[7]
  Observations: No excess solids
[2]
  temperature until which weight does not decrease (may be the onset of decomposition): approximately 207 °C
[2]; between 44° C. and 125° C.
  weight loss: approximately 0.1%
[3]; 5 min
  Average % Gemfibrozil dissolved: 96.64%
[3]; 5 min, listed as L-arginine gemfibrozil salt Material A
  Average % Gemfibrozil dissolved: 96.6%
[3]; 10 min
  Average % Gemfibrozil dissolved: 94.40%
[3]; 15 min
  Average % Gemfibrozil dissolved: 94.27%
[4]; Target RH 15.0%
  Hysteresis: 6.09
  Desorp Mass Change: 6.12%
  Sorp Mass Change: 0.03%
[4]; Target RH 25.0%
  Hysteresis: 6.79
  Desorp Mass Change: 6.85%
  Sorp Mass Change: 0.06%
[4]; Target RH 35.0%
  Hysteresis: 7.73
  Desorp Mass Change: 7.89%
  Sorp Mass Change: 0.16%
[4]; Target RH 45.0%
  Hysteresis: 9.27
  Desorp Mass Change: 9.51%
  Sorp Mass Change: 0.25%
[4]; Target RH 55.0%
  Hysteresis: 11.46
  Desorp Mass Change: 11.75%
  Sorp Mass Change: 0.28%
[4]; Target RH 65.0%
  Hysteresis: 14.60
  Desorp Mass Change: 14.95%
  Sorp Mass Change: 0.35%
[4]; Target RH 75.0%
  Hysteresis: 18.97
  Desorp Mass Change: 19.47%
  Sorp Mass Change: 0.50%
[4]; Target RH 85.0%
  Hysteresis: 25.96
  Desorp Mass Change: 26.79%
  Sorp Mass Change: 0.83%
[4]
  state of post-DVS sample: deliquesced
  gained moisture retained: approximately 5.6%
[4]; Target RH 5.0%
  Desorp Mass Change: 5.55%
  Sorp Mass Change: 0.00%
[4]; Target RH 95.0%
  Desorp Mass Change: 45.96%
  Sorp Mass Change: 45.96%
[4]; [8]
  percent increase in mass: approximately 0.8%
[4]; [9]
  percent change in mass: 45.1%

## Cc1ccc(C)c(OCCCC(C)(C)C(=O)O)c1.NCCO [Ethanolamine Form A]
pH 7.3
  Observations: No excess solids
[2]
  temperature until which weight does not decrease (may be the onset of decomposition): approximately 140 °C
[3]; 5 min
  Average % Gemfibrozil dissolved: 97.30%
[3]; 5 min, listed as ethanolamine gemfibrozil salt Form A
  Average % Gemfibrozil dissolved: 97.3%
[3]; 10 min
  Average % Gemfibrozil dissolved: 94.80%
[3]; 15 min
  Average % Gemfibrozil dissolved: 95.84%
[4]; Target RH 15.0%
  Hysteresis: 2.60
  Desorp Mass Change: 2.60%
  Sorp Mass Change: 0.00%
[4]; Target RH 25.0%
  Hysteresis: 3.56
  Desorp Mass Change: 3.56%
  Sorp Mass Change: 0.00%
[4]; Target RH 35.0%
  Hysteresis: 4.87
  Desorp Mass Change: 4.88%
  Sorp Mass Change: 0.01%
[4]; Target RH 45.0%
  Hysteresis: 6.67
  Desorp Mass Change: 6.70%
  Sorp Mass Change: 0.03%
[4]; Target RH 55.0%
  Hysteresis: 9.19
  Desorp Mass Change: 9.29%
  Sorp Mass Change: 0.10%
[4]; Target RH 65.0%
  Hysteresis: 1.78
  Desorp Mass Change: 12.93%
  Sorp Mass Change: 11.14%
[4]; Target RH 75.0%
  Hysteresis: 0.64
  Desorp Mass Change: 18.56%
  Sorp Mass Change: 17.93%
[4]; Target RH 85.0%
  Hysteresis: 4.16
  Desorp Mass Change: 31.49%
  Sorp Mass Change: 27.33%
[4]
  state of post-DVS sample: deliquesced
  gained moisture retained: approximately 2%
[4]; Target RH 5.0%
  Desorp Mass Change: 1.92%
  Sorp Mass Change: 0.00%
[4]; Target RH 95.0%
  Desorp Mass Change: 45.05%
  Sorp Mass Change: 45.05%
[4]; sorption from 5% to 55% relative humidity
  percent increase in mass: approximately 0.1%
[4]; sorption from 55% to 95% relative humidity
  percent change in mass: 44.9%

## Cc1ccc(C)c(OCCCC(C)(C)C(=O)O)c1 [Free Form, 5-(2,5-dimethylphenoxy)-2,2-dimethyl-pentanoic acid]
physchem
  solubility: < 1100 µg/mL
[5]
  average % of free-form gemfibrozil dissolved: 78%
[6]; in DMSO
  solubility: ~16000 µg/mL (≈ 63.9 mM)
[6]; in a 1:1 solution of ethanol:PBS
  solubility: approximately 0.5 mg/mL
[6]; in ethanol
  solubility: approximately 30 mg/ml
[6]; in water
  solubility: approximately 0.03 mg/ml

## Cc1ccc(C)c(OCCCC(C)(C)C(=O)O)c1.NCCCCC(N)C(=O)O [Lysine Material A]
[1]; post-DVS sample, exposure to increased relative humidity
  form change by XRPD: did not undergo a form change
[7]
  Observations: No excess solids
[2]
  temperature until which weight does not decrease (may be the onset of decomposition): approximately 165 °C
[3]; 5 min
  Average % Gemfibrozil dissolved: 96.29%
[3]; 5 min, listed as L-lysine gemfibrozil salt Material A
  Average % Gemfibrozil dissolved: 96.3%
[3]; 10 min
  Average % Gemfibrozil dissolved: 93.51%
[3]; 15 min
  Average % Gemfibrozil dissolved: 94.67%
[4]; Target RH 15.0%
  Hysteresis: 2.48
  Desorp Mass Change: 2.53%
  Sorp Mass Change: 0.04%
[4]; Target RH 25.0%
  Hysteresis: 3.61
  Desorp Mass Change: 2.81%
  Sorp Mass Change: 0.19%
[4]; Target RH 35.0%
  Hysteresis: 2.69
  Desorp Mass Change: 3.09%
  Sorp Mass Change: 0.40%
[4]; Target RH 45.0%
  Hysteresis: 2.54
  Desorp Mass Change: 3.45%
  Sorp Mass Change: 0.91%
[4]; Target RH 55.0%
  Hysteresis: 2.30
  Desorp Mass Change: 4.09%
  Sorp Mass Change: 1.79%
[4]; Target RH 65.0%
  Hysteresis: 2.09
  Desorp Mass Change: 5.25%
  Sorp Mass Change: 3.15%
[4]; Target RH 75.0%
  Hysteresis: 3.16
  Desorp Mass Change: 9.49%
  Sorp Mass Change: 6.32%
[4]; Target RH 85.0%
  Hysteresis: 13.47
  Desorp Mass Change: 27.95%
  Sorp Mass Change: 14.48%
[4]
  state of post-DVS sample: deliquesced
  gained moisture retained: approximately 2.1%
[4]; Target RH 5.0%
  Desorp Mass Change: 2.09%
  Sorp Mass Change: 0.00%
[4]; Target RH 95.0%
  Desorp Mass Change: 38.97%
  Sorp Mass Change: 38.97%
[4]; sorption from 5% to 25% relative humidity
  percent increase in mass: approximately 0.2%
[4]; [8]
  percent increase in mass: approximately 14.5%
[4]; [9]
  percent change in mass: approximately 24.5%
